Assay results published in patent US7115612B2, “Arylsulfonamides as antiviral agents” (Bayer Aktiengesellschaft, priority 2001, dated 2006).

Assays:
[1] = Cytotoxicity on HELF cells in the anti-HCMV cytopathogenicity test; type: cell-based; settings: human lung fibroblasts (HELF cells), 6 days incubation, visual evaluation
Experimental: The test compounds were employed as 50 millimolar (mM) solutions in dimethyl sulphoxide (DMSO). Ganciclovir, foscarnet and cidofovir served as reference compounds. Following the addition of in each case 2 μl of the 50, 5, 0.5 and 0.05 mM DMSO stock solutions to in each case 98μ of cell culture medium in row […], in duplicate determinations, 1:2 dilutions with in each case 50 μl of medium were prepared up to row 11 of the 96-well plate. The wells in rows 1 and 12 each contained 50 μl of medium. 150 μl of a suspension of 1×10^4 cells (human lung fibroblasts [HELF]) (row 1=cell control) or, in rows 2-12, a mixture of HCMV-infected and non-infected HELF cells (M.O.I.=0.001-0.002), i.e. 1-2 infected cells per 1000 non-infected cells, were then pipetted into each of the wells. Row 12 (without substance) served as virus control. The final test concentrations were 250-0.0005 μM. The plates were incubated at 37° C./5% CO2 for 6 days, i.e. until all cells in the virus controls had been infected (100% cytopathogenic effect [CPE]). The wells were then fixed and stained by adding a mixture of Formalin and Giemsa Stain (30 minutes), washed with doubly distilled water and dried in a drying cabinet at 50° C. The plates were then evaluated visually using an overhead microscope (plaque multiplier from Technomara). From the test plates, the following data were determined: CC50 (HELF)=substance concentration in μM at which, compared to the untreated cell control, no visible cytostatic effects on the cells were noticeable;

[2] = Cytotoxicity on 3T3 cells in the anti-MCMV cytopathogenicity test; type: cell-based; settings: mouse, 3T3 mouse cells, 5 days incubation
Experimental: (§1) The test compounds were employed as 50 millimolar (mM) solutions in dimethyl sulphoxide (DMSO). Ganciclovir, foscarnet and cidofovir served as reference compounds. Following the addition of in each case 2 μl of the 50, 5, 0.5 and 0.05 mM DMSO stock solutions to in each case 98μ of cell culture medium in row 2 A-H, in duplicate determinations, 1:2 dilutions with in each case 50 μl of medium were prepared up to row 11 of the 96-well plate. The wells in rows 1 and 12 each contained 50 μl of medium. 150 μl of a suspension of 1×10^4 cells (human lung fibroblasts [HELF]) (row 1=cell control) or, in rows 2–12, a mixture of HCMV-infected and non-infected HELF cells (M.O.I.=0.001–0.002), i.e. 1–2 infected cells per 1000 non-infected cells, were then pipetted into each of the wells. Row 12 (without substance) served as virus control. The final test concentrations were 250–0.0005 μM. The plates were incubated at 37° C./5% CO2 for 6 days, i.e. until all cells in the virus controls had been infected (100% cytopathogenic effect [CPE]). The wells were then fixed and stained by adding a mixture of Formalin and Giemsa Stain (30 minutes), washed with doubly distilled water and dried in a drying cabinet at 50° C. The plates were then evaluated visually using an overhead microscope (plaque multiplier from Technomara).
CC50 (HELF)=substance concentration in μM at which, compared to the untreated cell control, no visible cytostatic effects on the cells were noticeable;
(§2) Compared to the process described above for HCMV, the anti-MCMV test was carried out with the following changes: a cell-free virus suspension was mixed with a concentrated cell suspension (3T3 mouse cells) and incubated for 15 minutes for adsorption of the viruses, and the suspension was then diluted with medium to 1.3×10^5 cells/ml with a final multiplicity of infection (M.O.I.) of from 0.05–0.1, and in each case 150 μl were dispensed into the wells. The incubation time was 5 days.

[3] = test system: MCMV; assay: Anti-MCMV cytopathogenicity test; type: cell-based, murine cytomegalovirus; settings: for EC50: Murid betaherpesvirus 1, 120 h, MCMV-infected 3T3 mouse cells, M.O.I. 0.05–0.1, 5 days; for SI MCMV: selectivity index, 3T3 CC50 / MCMV EC50
Experimental: Anti-HCMV (Anti-Human Cytomegalovirus) and anti-MCMV (Anti-Murine Cytomegalovirus) cytopathogenicity tests:
as §1, §2

[4] = test system: HCMV; assay: Anti-HCMV cytopathogenicity test; type: cell-based, human cytomegalovirus; settings: for EC50: Human betaherpesvirus 5, 144 h, inhibition of CPE by 50% in HCMV-infected HELF cells, M.O.I. 0.001–0.002, 6 days; for SI HCMV: selectivity index = CC50 (HELF)/EC50 (HCMV)
Experimental: Anti-HCMV (Anti-Human Cytomegalovirus) and anti-MCMV (Anti-Murine Cytomegalovirus) cytopathogenicity tests: The test compounds were employed as 50 millimolar (mM) solutions in dimethyl sulphoxide (DMSO). Ganciclovir, foscarnet and cidofovir served as reference compounds. Following the addition of in each case 2 μl of the 50, 5, 0.5 and 0.05 mM DMSO stock solutions to in each case 98μ of cell culture medium in row […], in duplicate determinations, 1:2 dilutions with in each case 50 μl of medium were prepared up to row 11 of the 96-well plate. The wells in rows 1 and 12 each contained 50 μl of medium. 150 μl of a suspension of 1×10^4 cells (human lung fibroblasts [HELF]) (row 1=cell control) or, in rows 2-12, a mixture of HCMV-infected and non-infected HELF cells (M.O.I.=0.001-0.002), i.e. 1-2 infected cells per 1000 non-infected cells, were then pipetted into each of the wells. Row 12 (without substance) served as virus control. The final test concentrations were 250-0.0005 μM. The plates were incubated at 37° C./5% CO2 for 6 days, i.e. until all cells in the virus controls had been infected (100% cytopathogenic effect [CPE]). The wells were then fixed and stained by adding a mixture of Formalin and Giemsa Stain (30 minutes), washed with doubly distilled water and dried in a drying cabinet at 50° C. The plates were then evaluated visually using an overhead microscope (plaque multiplier from Technomara). From the test plates, the following data were determined: EC50 (HCMV)=substance concentration in μM which inhibits the CPE (cytopathic effect) by 50% compared to the untreated virus control; SI (selectivity index)=CC50 (HELF)/EC50 (HCMV).

Structure (SMILES)	EC50 [3]	EC50 [4]	CC50 at 6 days [1]	CC50 at 5 days [2]	SI MCMV [3]	SI HCMV [4]
CC1(C(=O)Nc2cccc(NS(=O)(=O)c3ccc(-c4noc(-c5cscn5)n4)cc3)c2)CC1 [Example 7, 1-Methyl-N-{3-[({4-[5-(1,3-thiazol-4-yl)-1,2,4-oxadiazol-3-yl]phenyl}sulphonyl)-amino]phenyl}cyclopropanecarboxamide]	25 nM	25 nM	47 µM	12 µM	480	1880
CN(C)c1cccc(-c2nc(-c3ccc(S(=O)(=O)Nc4cccc(NC(=O)C5(C)CC5)c4)cc3)no2)c1 [Example 2, N-(3-{[(4-{5-[3-(Dimethylamino)phenyl]-1,2,4-oxadiazol-3-yl}phenyl)sulphonyl]-amino}phenyl)-1-methylcyclopropanecarboxamide]	45 nM	50 nM	< 16 µM	0.9 µM	20	<320
Cc1cc(-c2nc(-c3ccc(S(=O)(=O)Nc4cccc(NC(=O)C5(C)CC5)c4)cc3)no2)[nH]n1 [Example 6, 1-Methyl-N-{3-[({4-[5-(3-methyl-1H-pyrazol-5-yl)-1,2,4-oxadiazol-3-yl]phenyl}-sulphonyl)amino]phenyl}cyclopropanecarboxamide]	41 nM	20 nM	39 µM	2.9 µM	71	2053
CC1(C(=O)Nc2cccc(NS(=O)(=O)c3ccc(-c4noc(-c5csc(N)n5)n4)cc3)c2)CC1 [Example 4]	15 nM	10 nM	> 63 µM	11 µM	733	>6300
Cc1cc(-c2nc(-c3ccc(S(=O)(=O)Nc4cccc(NC(=O)C5(C)CC5)c4)cc3)no2)nn1C [Example 8, N-{3-[({4-[5-(1,5-Dimethyl-1H-pyrazol-3-yl)-1,2,4-oxadiazol-3-yl]phenyl}-sulphonyl)amino]phenyl}-1-methylcyclopropanecarboxamide]	24 nM	20 nM	> 2.2 µM	> 3.9 µM	>163	>110
Cc1nc(-c2nc(-c3ccc(S(=O)(=O)Nc4cccc(NC(=O)C5(C)CC5)c4)cc3)no2)cs1 [Example 11, 1-Methyl-N-{3-[({4-[5-(2-methyl-1,3-thiazol-4-yl)-1,2,4-oxadiazol-3-yl]phenyl}-sulphonyl)amino]phenyl}cyclopropanecarboxamide]	2 nM	15 nM	> 16 µM	> 12 µM	>5850	>1040
Cc1cccc(-c2nc(-c3ccc(S(=O)(=O)Nc4cccc(NC(=O)C5(C)CC5)c4)cc3)no2)n1 [Example 5, 1-Methyl-N-{3-[({4-[5-(6-methyl-2-pyridinyl)-1,2,4-oxadiazol-3-yl]phenyl}-sulphonyl)amino]phenyl}cyclopropanecarboxamide]	14 nM	16 nM	> 16 µM	> 31 µM	>2214	>1000

More lines, main results first:

EC50 [3]	EC50 [4]	Structure (SMILES)	CC50 at 6 days [1]	CC50 at 5 days [2]	SI MCMV [3]	SI HCMV [4]
11 nM	5.2 nM	CC(C)(CF)C(=O)Nc1cccc(NS(=O)(=O)c2ccc(-c3noc(-c4cccc(N)n4)n3)cc2)c1 [Example 135, N-{3-[({4-[5-(6-Amino-2-pyridinyl)-1,2,4-oxadiazol-3-yl]phenyl}sulphonyl)amino]-phenyl}-3-fluoro-2,2-dimethylpropanamide]	47 µM	3 µM	273	9039
3 nM	6 nM	CC(=O)Nc1cccc(-c2nc(-c3ccc(S(=O)(=O)Nc4cccc(NC(=O)C5(C)CC5)c4)cc3)no2)n1 [Example 132, N-(3-{[(4-{5-[6-(Acetylamino)-2-pyridinyl]-1,2,4-oxadiazol-3-yl}phenyl)sulphonyl]-amino}phenyl)-1-methylcyclopropanecarboxamide]	47 µM	2.3 µM	767	7833
4.7 nM	9 nM	CC1(C(=O)Nc2cccc(NS(=O)(=O)c3ccc(-c4noc(-c5cccc(N)n5)n4)cc3)c2)CC1 [Example 134, N-{3-[({4-[5-(6-Amino-2-pyridinyl)-1,2,4-oxadiazol-3-yl]phenyl}sulphonyl)amino]-phenyl}-1-methylcyclopropanecarboxamide]	94 µM	8 µM	1617	10444
	20 nM	CC1(C(=O)Nc2ccc(NS(=O)(=O)c3cccc(-c4nnc(-c5ccccn5)s4)c3)cc2)CC1 [Example 131, 1-Methyl-N-{4-[({3-[5-(2-pyridinyl)-1,3,4-thiadiazol-2-yl]phenyl}sulphonyl)amino]phenyl}cyclopropanecarboxamide]	> 28 µM			>1555
30 nM	40 nM	CC(C)(CF)C(=O)Nc1ccc(NS(=O)(=O)c2cccc(-c3noc(-c4ccccc4)n3)c2)cc1 [Example 13, 3-Fluoro-2,2-dimethyl-N-[4-({[3-(5-phenyl-1,2,4-oxadiazol-3-yl)phenyl]sulphonyl}-amino)phenyl]propanamide]	< 8 µM	< 16 µM	<533	<200
58 nM	58 nM	CC1(C(=O)Nc2cccc(NS(=O)(=O)c3ccc(-c4noc(-c5csc(CN)n5)n4)cc3)c2)CC1 [Example 12, N-(3-{[(4-{5-[2-(Aminomethyl)-1,3-thiazol-4-yl]-1,2,4-oxadiazol-3-yl}phenyl)-sulphonyl]amino}phenyl)-1-methylcyclopropanecarboxamide]	14 µM	7 µM	121	241
